# Assays:
# [1] = test system: Enterovirus 71 (EV71) H strain; assay: In vitro anti-EV71 activity (antiviral activity in RD cells, CellTiter-Glo); assay type: cell-based; details: for in vitro anti-EV71 activity, in words: EV71, RD cells; for IC50: Enterovirus A, 96 h, EV71 H strain, RD cells, 4 days, CellTiter-Glo, read-out: IC50
# How it was run: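 RD cells infected with 100TCID50 EV71 in DMEM+2% FBS, with compound in 10-point three-fold dilutions, cultured 4 days at 37° C. Cell viability by CellTiter-Glo luminescence; inhibition rate relative to cell control fitted to S-curve for IC50. TD50 derived likewise; SI=TD50/IC50.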
# mTORC2 = biological target: T1, mTORC2 (Homo sapiens, UniProt P42345); assay: Western blot, phosphorylation of Ser473 of Akt in RD cells (mTORC2 inhibition); assay type: cell-based; details: 20 μM, 2 hours, Western blot (FIG. 1)
# T1 construct: endogenous in cells; host or cells: RD cells
# Experimental: In order to test the inhibitory activity of the synthesized compounds on the two mTOR complexes, the inhibitory activity experiments of mTORC1 and mTORC2 were carried out. Since mTORC1 and mTORC2 exerted their function by activating the phosphorylation of downstream substrates, the inhibitory activity of the compounds on mTORC1 and mTORC2 could be determined by detecting the phosphorylation levels of the Thr389 site of mTORC1 downstream substrate p70S6K1 and the Ser473 site of mTORC2 downstream substrate Akt.
# Pretreatment of Compound:
# (1) RD cells were cultured in DMEM medium containing 10% FBS and 1×PS (penicillin and streptomycin were at concentrations 100 IU and 100 μg/mL, respectively) at 37° C. and 5% CO2.
# (2) The RD cells (5×10^5 cells/2 mL medium) were inoculated into a 6-well plate and incubated at 37° C. and 5% CO2 for 24 hours.
# (3) The cells were washed once with PBS, and the cells were cultured in serum-free medium without nutrients overnight.
# (4) Formulation of compounds: […]
# Preparation of insulin medium: Insulin was diluted in DMEM medium containing 10% FBS and 1×PS so that the final concentration of insulin was 167 nM.
# Pretreatment of compound to be tested: The compound was dissolved in DMSO so that the concentration of the test compound was 20 mM, and the compound was diluted in 167 nM insulin medium to reach a concentration of 20 μM.
# Preparation of rapamycin solution: Rapamycin was dissolved in DMSO to a concentration of 10 mM, and the rapamycin was diluted in 167 nM insulin medium to reach a concentration of 20 μM.
# (5) The serum-free medium in each well was removed.
# (6) 2 mL of complete medium containing DMSO was added to each well as a control carrier. The final concentration of DMSO was 0.2%.
# (7) 2 mL of 20 μM rapamycin solution and 20 μM the compound to be tested were added to the designated wells, respectively. The final concentration of DMSO was 0.2%.
# (8) The cells were incubated for 2 hours at 37° C. and 5% CO2.
# Protein extraction and concentration determination:
# (1) The cells were washed once with refrigerated PBS, and then the PBS was discarded.
# (2) 150 μL of cell extraction buffer (RIPA, […], catalog number: C1053) was transferred into each well to lyse the cells, and then the resulting cell solution were incubated on ice for 30 minutes.
# (3) Centrifugation was performed at 14000 rpm (13000× g) for 30 minutes at 4° C.
# (4) The supernatant was transferred into a new eppendorf tube, and the cell lysate was stored at −80° C. before testing.
# (5) The protein concentration was determined by BCA method.
# Preparation of Buffer Solutions:
# (1) 100× Protease inhibitor (Beyotime, catalog number: P1005): 1 mL of redistilled water was added to the protease inhibitor and stirred gently until the solid was completely dissolved.
# (2) Lysis Buffer: […] of 100× protease inhibitor and 2× phosphatase inhibitor Cocktails PhosSTOP (Beyotime, catalog number: P1082) were added to 100 mL of the cell extract, and stirred gently until it was completely dissolved.
# (3) Electrophoresis Running Buffer:
# 10×MOPS buffer: 52.33 g of MOPS, 30.29 g of Tris base, 10 mL of 0.5 mol/L EDTA (pH 8.5) and 5 g of SDS was dissolved in 400 mL of redistilled water, stirred to dissolve, and the pH was adjusted to 7.5, then redistilled water was added again to reach a volume of 500 mL; 1×MOPS: 100 mL of 10×MOPS was diluted with redistilled water to 1000 mL.
# (4) 1× Transfer Buffer: […] of 10× transfer buffer (144 g of glucine, 30.3 g of trisbase, and distilled water were mixed to reach a volume of 1 L) and 400 mL of methanol were dissolved in 1500 mL of redistilled water, and then the redistilled water was added to reach a volume of 2000 mL. […]
SMILES,"in vitro anti-EV71 activity, in words [1]",IC50 [1],phosphorylation expression level of Akt (mTORC2)
"CC(=O)/C=C/c1cnc2ccc(-c3ccc(C)nc3)cc2c1Nc1cccc(C(F)(F)F)c1 [HTL-2-38, (E)-6-[3-(6-methyl)pyridyl]-4-[3-(trifluoromethyl)phenyl]aminoquinoline-3-butenone]",moderate anti-EV71 activity,2850 ± 1200 nM,–
"NC(=O)c1ccc(-c2ccc3ncc4oc(=O)n(-c5cccc(C(F)(F)F)c5)c4c3c2)cc1 [HTL-5-21, 8-(4-carbamoyl)phenyl-1-[3-(trifluoromethyl)phenyl]oxazolo[5,4-c]quinolin-2(1H)-one]",moderate inhibitory activity,2000 ± 300 nM,significantly down-regulate
"Nc1cccc(Nc2ccc3ncc4ccc(=O)n(-c5cccc(C(F)(F)F)c5)c4c3c2)c1 [HTL-6-11, 9-(3-aminophenyl)imino-2-oxo-1-[3-(trifluoromethyl)phenyl]-1,2-dihydrobenzo[h][1,6]naphthyridine]",moderate activity,890 nM,significantly down-regulate
"Nc1cccc(Nc2ccc3ncc4ccc(=O)n(-c5cccc(C(F)(F)F)c5)c4c3c2)n1 [HTL-6-12, 9-[2-(6-aminopyridyl)]imino-2-oxo-1-[3-(trifluoromethyl)phenyl]-1,2-dihydrobenzo[h][1,6]naphthyridine]",moderate activity,1230 ± 220 nM,significantly down-regulate
"NC(=O)/C=C/c1ccc2ncc3oc(=O)n(-c4cccc(C(F)(F)F)c4)c3c2c1 [HTL-6-30, (E)-8-(2-carbamoyl-vinyl)-1-[3-(trifluoromethyl)phenyl]oxazolo[5,4-c]quinolin-2(1H)-one]",moderate inhibitory activity,3700 ± 210 nM,–
"CCC(=O)Nc1ccc(-c2ccc3ncc4ccc(=O)n(-c5cccc(C(F)(F)F)c5)c4c3c2)cn1 [HTL-6-45, 9-[3-(6-propionylamino)pyridyl]-2-oxo-1-[3-(trifluoromethyl)phenyl]-1,2-dihydrobenzo[h][1,6]naphthyridine]",–,27 ± 10 nM,significantly down-regulate
"O=c1ccc2cnc3ccc(-c4ccc5ncccc5c4)cc3c2n1-c1cccc(C(F)(F)F)c1 [HTL-6-47, 9-(6-quinolyl)-2-oxo-1-[3-(trifluoromethyl)phenyl]-1,2-dihydrobenzo[h][1,6]naphthyridine]",–,250 ± 230 nM,significantly down-regulate
"O=c1ccc2cnc3ccc(-c4cccnc4F)cc3c2n1-c1cccc(C(F)(F)F)c1 [HTL-6-48, 9-[3-(2-fluoro)pyridyl]-2-oxo-1-[3-(trifluoromethyl)phenyl]-1,2-dihydrobenzo [h][1,6]naphthyridine]",high activity,59 nM,significantly down-regulate
"Cc1ncccc1-c1ccc2ncc3ccc(=O)n(-c4cccc(C(F)(F)F)c4)c3c2c1 [HTL-6-49, 9-[3-(2-methyl)pyridyl]-2-oxo-1-[3-(trifluoromethyl)phenyl]-1,2-dihydrobenzo[h][1,6]naphthyridine]",–,70 ± 10 nM,significantly down-regulate
"O=c1ccc2cnc3ccc(-c4cc[nH]n4)cc3c2n1-c1cccc(C(F)(F)F)c1 [HTL-6-50, 9-[(1H)-3-pyrazolyl]-2-oxo-1-[3-(trifluoromethyl)phenyl]-1,2-dihydrobenzo[h][1,6]naphthyridine]",–,> 200000 nM,significantly down-regulate
"O=c1ccc2cnc3ccc(-c4ccc(F)nc4)cc3c2n1-c1cccc(C(F)(F)F)c1 [HTL-7-01, 9-[3-(6-fluoro)pyridyl]-2-oxo-1-[3-(trifluoromethyl)phenyl]-1,2-dihydrobenzo[h][1,6]naphthyridine]",–,70 ± 10 nM,significantly down-regulate
"COc1ccc(-c2ccc3ncc4ccc(=O)n(-c5cccc(C(F)(F)F)c5)c4c3c2)cn1 [HTL-7-03, 9-[3-(6-methoxy)pyridyl]-2-oxo-1-[3-(trifluoromethyl)phenyl]-1,2-dihydrobenzo[h][1,6]naphthyridine]",–,40 ± 10 nM,significantly down-regulate
"O=C1Cc2cc(-c3ccc4ncc5ccc(=O)n(-c6cccc(C(F)(F)F)c6)c5c4c3)ccc2N1 [HTL-7-04, 9-[5-(2-oxo)indolyl]-2-oxo-1-[3-(trifluoromethyl)phenyl]-1,2-dihydrobenzo[h][1,6]naphthyridine]",–,10500 ± 560 nM,significantly down-regulate
"CCCC(=O)Nc1ccc(-c2ccc3ncc4ccc(=O)n(-c5cccc(C(F)(F)F)c5)c4c3c2)cn1 [HTL-7-05, 9-[3-(6-butyrylamino)pyridyl]-2-oxo-1-[3-(trifluoromethyl)phenyl]-1,2-dihydrobenzo[h][1,6]naphthyridine]",–,130 ± 60 nM,significantly down-regulate
"COc1ncc(-c2ccc3ncc4ccc(=O)n(-c5cccc(C(F)(F)F)c5)c4c3c2)cn1 [HTL-7-06, 9-[5-(2-methoxy)pyrimidyl]-2-oxo-1-[3-(trifluoromethyl)phenyl]-1,2-dihydrobenzo[h][1,6]naphthyridine]",–,50 ± 10 nM,significantly down-regulate
"CCCCC(=O)Nc1ccc(-c2ccc3ncc4ccc(=O)n(-c5cccc(C(F)(F)F)c5)c4c3c2)cn1 [HTL-7-08, 9-[3-(6-valerylamino)pyridyl]-2-oxo-1-[3-(trifluoromethyl)phenyl]-1,2-dihydrobenzo[h][1,6]naphthyridine]",–,200 ± 20 nM,significantly down-regulate
"O=C(Cc1ccccc1)Nc1ccc(-c2ccc3ncc4ccc(=O)n(-c5cccc(C(F)(F)F)c5)c4c3c2)cn1 [HTL-7-10, 9-[3-(6-phenylacetylamino)pyridyl]-2-oxo-1-[3-(trifluoromethyl)phenyl]-1,2-dihydrobenzo[h][1,6]naphthyridine]",–,390 ± 180 nM,significantly down-regulate
"COc1ccc(CC(=O)Nc2ccc(-c3ccc4ncc5ccc(=O)n(-c6cccc(C(F)(F)F)c6)c5c4c3)cn2)cc1 [HTL-7-11, 9-{3-[6-(4-methoxy)phenylacetylamino]pyridyl}-2-oxo-1-[3-(trifluoromethyl)phenyl]-1,2-dihydrobenzo[h][1,6]naphthyridine]",–,95 ± 7 nM,significantly down-regulate
"O=c1ccc2cnc3ccc(C4=CCC5(CC4)OCCO5)cc3c2n1-c1cccc(C(F)(F)F)c1 [HTL-7-13, 9-(1,4-dioxa-spiro[4.5]dec-7-en-8-yl)-2-oxo-1-[3-(trifluoromethyl)phenyl]-1,2-dihydrobenzo[h][1,6]naphthyridine]",–,26300 ± 12900 nM,significantly down-regulate
"O=C(Nc1ccc(-c2ccc3ncc4ccc(=O)n(-c5cccc(C(F)(F)F)c5)c4c3c2)cn1)OCc1ccccc1 [HTL-7-14, 9-[3-(6-benzyloxyamido)pyridyl]-2-oxo-1-[3-(trifluoromethyl)phenyl]-1,2-dihydrobenzo[h][1,6]naphthyridine]",–,23700 ± 1020 nM,significantly down-regulate

# From US20220220106A1, “QUINOLINE COMPOUNDS AND PHARMACEUTICAL COMPOSITIONS AND USES THEREOF” (Academy of Military Medical Sciences, priority 2019, published 2022)
